Experiments:
[1] = system: P. falciparum 3D7 trophozoites; assay: Metabolomic fingerprint profiling LC-MS; type: cell-based, Plasmodium falciparum; set-up: UDP-D-glucose / ADP-D-glucose: unit not given here; conditions: for Acetyllysine / N-acetyl-L-ornithine / N-carbamoyl-L-aspartate / NADPH / dAMP / dCMP / dTDP / dTMP / dTTP / dihydroorotate / orotate / DLH / DLS/SDL/SID / PD / PEE / PVNF / 3-phosphoglycerate / ADP-D-glucose / ATP / CDP / D-sedoheptulose-1/7-phosphate / FAD / GMP / NAD+ / NADP+ / Octoluse Bisphosphate / Pyroglutamic acid / UDP-D-glucose / UDP-D-glucuronate / UDP-N-acetyl-glucosamine / UDP / UMP / UTP / a-ketoglutarate / citrate/isocitrate / cytidine / dATP / dGMP/AMP / fumarate / glucose-1/6-phosphate / glycerate / guanine / guanosine / hypoxanthine / indole / inosine / nicotinate / ornithine / phosphoenolpyruvate / pyruvate / ribose-phosphate / sarcosine/alanine / sn-glycerol-3-phosphate / succinate/methylmalonic acid / uridine / xanthosine: S2 Table Metabolomics; for Acetyllysine: metabolite Acetyllysine; for N-acetyl-L-ornithine: metabolite N-acetyl-L-ornithine; for N-carbamoyl-L-aspartate: metabolite N-carbamoyl-L-aspartate; for NADPH: metabolite NADPH; for dAMP: metabolite dAMP; for dCMP: metabolite dCMP; for dTDP: metabolite dTDP; for dTMP: metabolite dTMP; for dTTP: metabolite dTTP; for dihydroorotate: metabolite dihydroorotate; for orotate: metabolite orotate; for DLH: peptide DLH; for DLS/SDL/SID: peptide DLS/SDL/SID; for PD: peptide PD; for PEE: peptide PEE; for PVNF: peptide PVNF; for 3-phosphoglycerate: metabolite 3-phosphoglycerate; for ADP-D-glucose: metabolite ADP-D-glucose; for ATP: metabolite ATP; for CDP: metabolite CDP; for CDP / D-sedoheptulose-1/7-phosphate / GMP / Octoluse Bisphosphate / UDP / UMP / UTP / citrate/isocitrate / dGMP/AMP / fumarate / glucose-1/6-phosphate / glycerate / guanine / guanosine / inosine / pyruvate / sarcosine/alanine / succinate/methylmalonic acid / uridine / xanthosine: change in metabolite level after compound treatment; for D-sedoheptulose-1/7-phosphate: metabolite D-sedoheptulose-1/7-phosphate; for FAD: metabolite FAD; for GMP: metabolite GMP; for NAD+: metabolite NAD+; for NADP+: metabolite NADP+; for Octoluse Bisphosphate: metabolite Octoluse Bisphosphate; for Pyroglutamic acid: metabolite Pyroglutamic acid; for UDP-D-glucose: metabolite UDP-D-glucose; for UDP-D-glucuronate: metabolite UDP-D-glucuronate; for UDP-N-acetyl-glucosamine: metabolite UDP-N-acetyl-glucosamine; for UDP: metabolite UDP; for UMP: metabolite UMP; for UTP: metabolite UTP; for a-ketoglutarate: metabolite a-ketoglutarate; for citrate/isocitrate: metabolite citrate/isocitrate; for cytidine: metabolite cytidine; for dATP: metabolite dATP; for dGMP/AMP: metabolite dGMP/AMP; for fumarate: metabolite fumarate; for glucose-1/6-phosphate: metabolite glucose-1/6-phosphate; for glycerate: metabolite glycerate; for guanine: metabolite guanine; for guanosine: metabolite guanosine; for hypoxanthine: metabolite hypoxanthine; for indole: metabolite indole; for inosine: metabolite inosine; for 2_3-Diphosphoglyceric acid / 4-phosphopantothenate / 6-phospho-D-gluconate / FMN / IMP / Pyrophosphate / Sedoheptoluse bisphosphate / cyclic-AMP / glutathione disulfide / lactate / myo-inositol: metabolite level change after treatment; for nicotinate: metabolite nicotinate; for ornithine: metabolite ornithine; for phosphoenolpyruvate: metabolite phosphoenolpyruvate; for pyruvate: metabolite pyruvate; for ribose-phosphate: metabolite ribose-phosphate; for sarcosine/alanine: metabolite sarcosine/alanine; for sn-glycerol-3-phosphate: metabolite sn-glycerol-3-phosphate; for succinate/methylmalonic acid: metabolite succinate/methylmalonic acid; for uridine: metabolite uridine; for xanthosine: metabolite xanthosine
P. falciparum = assay: EC50 listed in S2 Table Metabolomics (used to set the concentration tested); type: cell-based; conditions: Plasmodium falciparum; EC50 used for Factor_XEC50 in metabolomics; read-out: EC50_nM

`Cc1ccc(-c2cc3c(SCC(=O)Nc4cc(C(F)(F)F)ccc4Cl)nccn3n2)cc1` [MMV396680] showed an Acetyllysine [1] of -0.4906, a N-acetyl-L-ornithine [1] of -0.1465 and a N-carbamoyl-L-aspartate [1] of 2.456. It also gave an NADPH [1] of 0.3651, a dAMP [1] of -0.4552 and a dCMP [1] of -0.05341. It also gave a dTDP [1] of -1.136, a dTMP [1] of -1.083 and a dTTP [1] of -1.158. For the same compound, the dihydroorotate [1] was 3.543, the orotate [1] was -0.9159 and the DLH [1] was -0.3949. The DLS/SDL/SID [1] was -0.337, the PD [1] was -0.05706 and the PEE [1] was -0.2567. The PVNF [1] was -0.5778, the 3-phosphoglycerate [1] was -0.2595 and the ADP-D-glucose [1] was -0.2217. It also gave an ATP [1] of -0.3128, a CDP [1] of -0.9741 and a D-sedoheptulose-1/7-phosphate [1] of -0.1867. The FAD [1] was 0.01886, the GMP [1] was 0.2283 and the “NAD+” value [1] was 0.1566. The “NADP+” value [1] was -0.1345, the “Octoluse Bisphosphate” value [1] was -0.3002 and the Pyroglutamic acid [1] was -0.01833. For the same compound, the UDP-D-glucose [1] was -0.08257, the UDP-D-glucuronate [1] was -0.2581 and the UDP-N-acetyl-glucosamine [1] was -0.1134. For the same compound, the UDP [1] was -1.014, the UMP [1] was -0.7737 and the UTP [1] was -1.292. It also gave an a-ketoglutarate [1] of -0.4564, a citrate/isocitrate [1] of -0.8044 and a cytidine [1] of 0.4371. The dATP [1] was 0.3628, the dGMP/AMP [1] was -1.368 and the fumarate [1] was -0.8765. For the same compound, the glucose-1/6-phosphate [1] was 0.09137, the glycerate [1] was -0.2491 and the guanine [1] was 0.04089. For the same compound, the guanosine [1] was -0.01605, the hypoxanthine [1] was -0.1601 and the indole [1] was -0.003888. For the same compound, the inosine [1] was -0.03937, the 2_3-Diphosphoglyceric acid [1] was -0.2285 and the 4-phosphopantothenate [1] was -0.2363. For the same compound, the 6-phospho-D-gluconate [1] was 0, the FMN [1] was -0.1967 and the IMP [1] was -0.1897. For the same compound, the Pyrophosphate [1] was 0.5607, the Sedoheptoluse bisphosphate [1] was -0.2656 and the cyclic-AMP [1] was -0.07723. For the same compound, the glutathione disulfide [1] was -0.04075, the lactate [1] was -0.4254 and the myo-inositol [1] was -0.7104. The nicotinate [1] was -0.4764, the ornithine [1] was -0.2162 and the phosphoenolpyruvate [1] was -0.2321. It also gave a pyruvate [1] of -0.2774, a ribose-phosphate [1] of -0.04672 and a sarcosine/alanine [1] of -0.2257. For the same compound, the sn-glycerol-3-phosphate [1] was -0.3003, the succinate/methylmalonic acid [1] was 0.02717 and the uridine [1] was -0.7719. The xanthosine [1] was -0.1274 and the EC50 (P. falciparum) was 92.8 nM.
With `COc1ccc(-c2c(C)nn3c(N)c(C#N)cnc23)cc1OC` [MMV396797] the Acetyllysine [1] was -1.561, the N-acetyl-L-ornithine [1] was -1.053 and the N-carbamoyl-L-aspartate [1] was 1.252. The NADPH [1] was 0.3593, the dAMP [1] was 0.5405 and the dCMP [1] was 1.351. The dTDP [1] was 0.6464, the dTMP [1] was 1.055 and the dTTP [1] was 0.1329. The dihydroorotate [1] was 0.9521, the orotate [1] was -0.1403 and the DLH [1] was -2.487. It also gave a DLS/SDL/SID [1] of -1.077, a PD [1] of -0.9589 and a PEE [1] of -1.335. The PVNF [1] was -1.44, the 3-phosphoglycerate [1] was -0.332 and the ADP-D-glucose [1] was 0.000409. It also gave an ATP [1] of -0.6534, a CDP [1] of 0.6836 and a D-sedoheptulose-1/7-phosphate [1] of 0.6682. The FAD [1] was 0.02733, the GMP [1] was 0.6724 and the “NAD+” value [1] was 0.9649. The “NADP+” value [1] was 0.1001, the “Octoluse Bisphosphate” value [1] was -0.3618 and the Pyroglutamic acid [1] was -0.2754. For the same compound, the UDP-D-glucose [1] was 0.1529, the UDP-D-glucuronate [1] was 0.1151 and the UDP-N-acetyl-glucosamine [1] was 0.3642. The UDP [1] was 0.7706, the UMP [1] was 0.7638 and the UTP [1] was 0.02297. For the same compound, the a-ketoglutarate [1] was -0.2189, the citrate/isocitrate [1] was -0.742 and the cytidine [1] was -0.8311. For the same compound, the dATP [1] was -0.6595, the dGMP/AMP [1] was 0.1443 and the fumarate [1] was -0.5921. The glucose-1/6-phosphate [1] was 0.3476, the glycerate [1] was -0.7107 and the guanine [1] was -0.1249. The guanosine [1] was -0.2185, the hypoxanthine [1] was -0.6773 and the indole [1] was -0.01428. It also gave an inosine [1] of -0.2482, a 2_3-Diphosphoglyceric acid [1] of 0.4884 and a 4-phosphopantothenate [1] of 0.5554. The 6-phospho-D-gluconate [1] was 0.1152, the FMN [1] was 0.2278 and the IMP [1] was 0.7032. For the same compound, the Pyrophosphate [1] was 0.391, the Sedoheptoluse bisphosphate [1] was -0.2371 and the cyclic-AMP [1] was 0.5443. The glutathione disulfide [1] was 0.05378, the lactate [1] was -0.5978 and the myo-inositol [1] was -0.8022. For the same compound, the nicotinate [1] was 0.06441, the ornithine [1] was -0.4887 and the phosphoenolpyruvate [1] was -0.1659. The pyruvate [1] was -0.5507, the ribose-phosphate [1] was -0.3757 and the sarcosine/alanine [1] was -0.5535. For the same compound, the sn-glycerol-3-phosphate [1] was -0.1272, the succinate/methylmalonic acid [1] was -0.001406 and the uridine [1] was -0.3835. It also gave a xanthosine [1] of -0.6585 and an EC50 (P. falciparum) of 477 nM.
